ChEMBL document CHEMBL3885881, “DrugMatrix”

Organism: Rattus norvegicus
Experiment: DrugMatrix - Regimen: Daily Repeat
Assay type: toxicity, organism-based, Sprague-Dawley
Set-up: regimen Daily Repeat, gender Male, age 6-8 weeks
Settings: in vivo, po, route oral GAVAGE, […]; for ABSOLUTE BASOPHIL / ABSOLUTE EOSINOPHIL / ABSOLUTE LYMPHOCYTE / ABSOLUTE MONOCYTE / ABSOLUTE SEGMENTED NEUTROPHIL / BASOPHIL / EOSINOPHIL / ERYTHROCYTE COUNT / HEMATOCRIT / HEMOGLOBIN / LEUKOCYTE COUNT / LYMPHOCYTE / MEAN CORPUSCULAR HEMOGLOBIN / MEAN CORPUSCULAR HEMOGLOBIN CONCENTRATION / MONOCYTE / NEUTROPHIL / NUCLEATED RED BLOOD CELLS / PLATELET COUNT: tissue Blood; for ALANINE AMINOTRANSFERASE / ALBUMIN / ALKALINE PHOSPHATASE / ASPARTATE AMINOTRANSFERASE / BLOOD UREA NITROGEN / CARBON DIOXIDE / CHLORIDE / CHOLESTEROL / CREATINE PHOSPHOKINASE / CREATININE / LACTATE DEHYDROGENASE / LIPASE / PHOSPHORUS / POTASSIUM / SODIUM / TOTAL BILIRUBIN / TOTAL PROTEIN / URIC ACID: tissue Plasma
[1] = 0 mg/kg, 72 h, dose level Control, time 3 day
[2] = 0 mg/kg, 120 h, dose level Control, time 5 day
[3] = 10 mg/kg, 72 h, dose level Low, time 3 day

CN(CCOc1ccc(CC2SC(=O)NC2=O)cc1)c1ccccn1 (stereo not drawn) [ROSIGLITAZONE]
ABSOLUTE BASOPHIL [1]: 0 CELLS/uL | ABSOLUTE EOSINOPHIL [1]: 14 CELLS/uL | ABSOLUTE LYMPHOCYTE [1]: 11144.67 CELLS/uL | ABSOLUTE MONOCYTE [1]: 22.5 CELLS/uL | ABSOLUTE SEGMENTED NEUTROPHIL [1]: 535.5 CELLS/uL | BASOPHIL [1]: 0% | EOSINOPHIL [1]: 0.17% | ERYTHROCYTE COUNT [1]: 5.08 x10E6/uL | HEMATOCRIT [1]: 32.32% | HEMOGLOBIN [1]: 12.87 G/DL | LEUKOCYTE COUNT [1]: 11.72 x10E3/uL | LYMPHOCYTE [1]: 94.67% | MEAN CORPUSCULAR HEMOGLOBIN [1]: 25.37 pg | MEAN CORPUSCULAR HEMOGLOBIN CONCENTRATION [1]: 39.85 G/DL | MONOCYTE [1]: 0.17% | NEUTROPHIL [1]: 5% | NUCLEATED RED BLOOD CELLS [1]: 0 /100WBC | PLATELET COUNT [1]: 1084 x10E3/uL | ALANINE AMINOTRANSFERASE [1]: 67.5 u/L | ALBUMIN [1]: 4.02 G/DL | ALKALINE PHOSPHATASE [1]: 374.17 u/L | ASPARTATE AMINOTRANSFERASE [1]: 83.5 u/L | BLOOD UREA NITROGEN [1]: 14.5 mg/dL | CARBON DIOXIDE [1]: 30 mmol/L | CHLORIDE [1]: 100.5 MEQ/L | CHOLESTEROL [1]: 71.33 mg/dL | CREATINE PHOSPHOKINASE [1]: 268.33 u/L | CREATININE [1]: 0.16 mg/dL | LACTATE DEHYDROGENASE [1]: 81.17 u/L | LIPASE [1]: 16.67 u/L | PHOSPHORUS [1]: 10.07 mg/dL | POTASSIUM [1]: 5.03 MEQ/L | SODIUM [1]: 142.92 MEQ/L | TOTAL BILIRUBIN [1]: 0.17 mg/dL | TOTAL PROTEIN [1]: 5.63 G/DL | URIC ACID [1]: 0.5 mg/dL | ABSOLUTE BASOPHIL [2]: 0 CELLS/uL | ABSOLUTE EOSINOPHIL [2]: 37.5 CELLS/uL | ABSOLUTE LYMPHOCYTE [2]: 8049.5 CELLS/uL | ABSOLUTE MONOCYTE [2]: 82.83 CELLS/uL | ABSOLUTE SEGMENTED NEUTROPHIL [2]: 646.83 CELLS/uL | BASOPHIL [2]: 0% | EOSINOPHIL [2]: 0.5% | ERYTHROCYTE COUNT [2]: 5.36 x10E6/uL | HEMATOCRIT [2]: 33.9% | HEMOGLOBIN [2]: 13.02 G/DL | LEUKOCYTE COUNT [2]: 8.82 x10E3/uL | LYMPHOCYTE [2]: 90.17% | MEAN CORPUSCULAR HEMOGLOBIN [2]: 24.32 pg | MEAN CORPUSCULAR HEMOGLOBIN CONCENTRATION [2]: 38.42 G/DL | MONOCYTE [2]: 1.17% | NEUTROPHIL [2]: 8.17% | NUCLEATED RED BLOOD CELLS [2]: 0.17 /100WBC | PLATELET COUNT [2]: 1231.5 x10E3/uL | ALANINE AMINOTRANSFERASE [2]: 62 u/L | ALBUMIN [2]: 3.97 G/DL | ALKALINE PHOSPHATASE [2]: 303.67 u/L | ASPARTATE AMINOTRANSFERASE [2]: 84.5 u/L | BLOOD UREA NITROGEN [2]: 14.83 mg/dL | CARBON DIOXIDE [2]: 31.83 mmol/L | CHLORIDE [2]: 97 MEQ/L | CHOLESTEROL [2]: 68.83 mg/dL | CREATINE PHOSPHOKINASE [2]: 411.33 u/L | CREATININE [2]: 0.16 mg/dL | LACTATE DEHYDROGENASE [2]: 88.5 u/L | LIPASE [2]: 9.5 u/L | PHOSPHORUS [2]: 9.98 mg/dL | POTASSIUM [2]: 5.72 MEQ/L | SODIUM [2]: 141.62 MEQ/L | TOTAL BILIRUBIN [2]: 0.1 mg/dL | TOTAL PROTEIN [2]: 5.67 G/DL | URIC ACID [2]: 0.52 mg/dL | ABSOLUTE BASOPHIL [3]: 0 CELLS/uL | ABSOLUTE EOSINOPHIL [3]: 0 CELLS/uL | ABSOLUTE LYMPHOCYTE [3]: 11817.33 CELLS/uL | ABSOLUTE MONOCYTE [3]: 150.67 CELLS/uL | ABSOLUTE SEGMENTED NEUTROPHIL [3]: 1032 CELLS/uL | BASOPHIL [3]: 0% | EOSINOPHIL [3]: 0% | ERYTHROCYTE COUNT [3]: 4.98 x10E6/uL | HEMATOCRIT [3]: 32.63% | HEMOGLOBIN [3]: 12.83 G/DL | LEUKOCYTE COUNT [3]: 13 x10E3/uL | LYMPHOCYTE [3]: 91.33% | MEAN CORPUSCULAR HEMOGLOBIN [3]: 25.77 pg | MEAN CORPUSCULAR HEMOGLOBIN CONCENTRATION [3]: 39.37 G/DL | MONOCYTE [3]: 1% | NEUTROPHIL [3]: 7.67% | NUCLEATED RED BLOOD CELLS [3]: 0 /100WBC | PLATELET COUNT [3]: 1118.67 x10E3/uL | ALANINE AMINOTRANSFERASE [3]: 64.67 u/L | ALBUMIN [3]: 4 G/DL | ALKALINE PHOSPHATASE [3]: 377.67 u/L | ASPARTATE AMINOTRANSFERASE [3]: 83.67 u/L | BLOOD UREA NITROGEN [3]: 16.33 mg/dL | CARBON DIOXIDE [3]: 32.67 mmol/L | CHLORIDE [3]: 99.33 MEQ/L | CHOLESTEROL [3]: 66.33 mg/dL | CREATINE PHOSPHOKINASE [3]: 223.67 u/L | CREATININE [3]: 0.16 mg/dL | LACTATE DEHYDROGENASE [3]: 89 u/L | LIPASE [3]: 9.67 u/L | PHOSPHORUS [3]: 9.83 mg/dL | POTASSIUM [3]: 5.42 MEQ/L | SODIUM [3]: 143.77 MEQ/L | TOTAL BILIRUBIN [3]: 0.13 mg/dL | TOTAL PROTEIN [3]: 5.7 G/DL | URIC ACID [3]: 0.53 mg/dL
